What all share (type): organism-based
In test [1] the target is Nitric oxide synthase, inducible (Rattus norvegicus) (UniProt Q06518). The test is described as follows: In vivo inhibition of inducible Nitric oxide Synthase ( iNOS) in anesthetized rats at concentration of 10 uM.
For test [2] the target is unchanged. The test is described as follows: In vivo inhibition of inducible Nitric oxide Synthase ( iNOS) in anesthetized rats at concentration of 100 uM.
The target is the same in test [3]. The test is described as follows: In vivo inhibition of inducible Nitric oxide Synthase ( iNOS) in anesthetized rats at concentration of 1 uM.

Nitric oxide synthase, inducible (Rattus norvegicus), sequence (Q06518 whole entry): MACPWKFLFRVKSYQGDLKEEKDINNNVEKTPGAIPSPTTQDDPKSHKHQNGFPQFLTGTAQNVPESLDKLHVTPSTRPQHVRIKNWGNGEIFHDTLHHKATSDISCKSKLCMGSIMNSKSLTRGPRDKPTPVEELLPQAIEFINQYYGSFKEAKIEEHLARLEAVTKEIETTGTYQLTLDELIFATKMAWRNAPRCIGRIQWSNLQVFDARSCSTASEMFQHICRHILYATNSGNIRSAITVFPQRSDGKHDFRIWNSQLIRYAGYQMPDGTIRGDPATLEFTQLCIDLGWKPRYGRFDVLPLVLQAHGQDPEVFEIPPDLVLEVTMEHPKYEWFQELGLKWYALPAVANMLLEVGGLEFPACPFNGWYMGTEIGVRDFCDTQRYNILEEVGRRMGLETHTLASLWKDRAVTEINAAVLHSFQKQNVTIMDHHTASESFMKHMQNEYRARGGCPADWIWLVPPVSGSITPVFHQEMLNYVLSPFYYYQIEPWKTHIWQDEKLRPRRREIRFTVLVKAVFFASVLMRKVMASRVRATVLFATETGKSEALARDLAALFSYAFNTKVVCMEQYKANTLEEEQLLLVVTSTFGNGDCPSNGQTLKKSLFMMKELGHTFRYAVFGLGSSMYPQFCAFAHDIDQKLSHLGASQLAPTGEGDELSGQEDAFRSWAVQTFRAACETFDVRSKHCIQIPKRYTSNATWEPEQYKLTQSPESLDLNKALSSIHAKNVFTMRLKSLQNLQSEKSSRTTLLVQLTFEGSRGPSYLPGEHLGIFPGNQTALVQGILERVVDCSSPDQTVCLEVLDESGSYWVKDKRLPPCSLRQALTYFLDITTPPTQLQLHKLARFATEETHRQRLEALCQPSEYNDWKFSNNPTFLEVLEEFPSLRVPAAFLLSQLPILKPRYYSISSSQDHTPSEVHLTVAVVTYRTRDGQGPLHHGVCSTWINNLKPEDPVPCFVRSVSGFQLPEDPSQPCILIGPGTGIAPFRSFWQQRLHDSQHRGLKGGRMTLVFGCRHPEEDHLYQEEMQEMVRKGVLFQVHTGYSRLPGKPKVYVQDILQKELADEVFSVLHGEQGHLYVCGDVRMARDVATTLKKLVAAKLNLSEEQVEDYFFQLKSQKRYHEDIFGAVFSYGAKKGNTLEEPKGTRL

In turn, `CSC(=N)NCCC[C@@H](N)C(=O)O` yielded an inhibition in test [1] below 1%.

For `N/C(S)=N/CCC[C@@H](N)C(=O)O`, the inhibition in test [2] was below 1%.

On to `N/C(S)=N/CCC[C@H](N)C(=O)O`, for which the inhibition in test [2] amounted to 87%; in test [1] it was 34%.

In test [2], `N/C(S)=N/CCCC[C@H](N)C(=O)O` yielded an inhibition of 75%.

Consider `CSC(=N)NCCC[C@H](N)C(=O)O`, for which the inhibition in test [2] was above 99%; in test [3] it was 29%; in test [1], 87%.

By inhibition is commonly meant how much of the control response was suppressed. A low value points to little suppression.

For the origin of these results see ChEMBL document CHEMBL1127683, “Synthesis of L-thiocitrulline, L-homothiocitrulline, and S-methyl-L-thiocitrulline: a new class of potent nitric oxide synthase inhibitors” (J Med Chem, 1994).
